Experimental data from US11001577B2, “Pesticidally active azetidine sulfones amide isoxazoline derivatives” (SYNGENTA PARTICIPATIONS AG, priority 2016, dated 2021).
Where two headings read alike, the source gives them in different places.

How the values were obtained:
Assay type in all cases: in vivo
Tetranychus urticae [1] = test: Tetranychus urticae (two-spotted spider mite) feeding/contact activity; details: 192 h, read-out: mortality on mixed population (mobile stages)
Procedure: (§1) Tetranychus urticae (Two-Spotted Spider Mite):Feeding/Contact Activity
(§2) Bean leaf discs on agar in 24-well microtiter plates were sprayed with aqueous test solutions prepared from 10,000 ppm DMSO stock solutions. After drying the leaf discs were infested with a mite population of mixed ages. The samples were assessed for mortality on mixed population (mobile stages) 8 days after infestation.

Myzus persicae = Myzus persicae (green peach aphid) feeding/contact activity; details: 144 h
Procedure: Myzus persicae (Green Peach Aphid):Feeding/Contact Activity
(§3) Sunflower leaf discs were placed onto agar in a 24-well microtiter plate and sprayed with aqueous test solutions prepared from 10,000 ppm DMSO stock solutions. After drying, the leaf discs were infested with an aphid population of mixed ages. The samples were assessed for mortality 6 days after infestation.

Diabrotica balteata = Diabrotica balteata (corn root worm), maize sprouts sprayed; details: 96 h, read-out: effect in at least one of the two categories (mortality or growth inhibition); for percent effect (mortality or growth inhibition) at 200 ppm: application rate 200 ppm, L2 larvae, 4 days after infestation
Procedure: Diabrotica balteata (Corn Root Worm)
Maize sprouts placed onto an agar layer in 24-well microtiter plates were treated with aqueous test solutions prepared from 10,000 ppm DMSO stock solutions by spraying. After drying, the plates were infested with L2 larvae (6 to 10 per well). The samples were assessed for mortality and growth inhibition in comparison to untreated samples 4 days after infestation.

Plutella xylostella [2] = test: Plutella xylostella (diamond back moth), artificial diet; details: 120 h, read-out: effect in at least one of the two categories (mortality or growth inhibition); for percent effect (mortality or growth inhibition) at 200 ppm: application rate 200 ppm, L2 larvae, 5 days after infestation
Procedure: Plutella xylostella (Diamond Back Moth)
(§4) 24-well microtiter plates with artificial diet were treated with aqueous test solutions prepared from 10,000 ppm DMSO stock solutions by pipetting. After drying, the plates were infested with L2 larvae (10 to 15 per well). The samples were assessed for mortality and growth inhibition in comparison to untreated samples 5 days after infestation.

Spodoptera littoralis [3] = test: Spodoptera littoralis (Egyptian cotton leaf worm), cotton leaf discs; details: foliar, 72 h; for percent control (mortality, anti-feedant effect or growth inhibition) at 200 ppm: application rate 200 ppm, L1 larvae, 3 days after infestation
Procedure: Spodoptera littoralis (Egyptian Cotton Leaf Worm)
Cotton leaf discs were placed onto agar in 24-well microtiter plates and sprayed with aqueous test solutions prepared from 10,000 ppm DMSO stock solutions. After drying the leaf discs were infested with five L1 larvae. The samples were assessed for mortality, anti-feeding effect, and growth inhibition in comparison to untreated samples 3 days after infestation. Control of Spodoptera littoralis by a test sample is given when at least one of the categories mortality, anti-feedant effect, and growth inhibition is higher than the untreated sample.

Thrips tabaci [4] = test: Thrips tabaci (onion thrips) feeding/contact activity; details: 144 h
Procedure: (§5) Thrips tabaci (Onion Thrips) Feeding/Contact Activity
as §3, with “on” for “onto”, “in” for “in a”, “plates” for “plate”, “drying” for “drying,”, “a thrips” for “an aphid”

Euschistus heros = Euschistus heros (neotropical brown stink bug), soybean leaves sprayed; details: 120 h, read-out: effect in at least one of the two categories (mortality or growth inhibition); for percent effect (mortality or growth inhibition) at 200 ppm: application rate 200 ppm, N2 nymphs, 5 days after infestation
Procedure: Euschistus heros (Neotropical Brown Stink Bug)
Soybean leaves on agar in 24-well microtiter plates were sprayed with aqueous test solutions prepared from 10,000 ppm DMSO stock solutions. After drying the leaves were infested with N2 nymphs. The samples were assessed for mortality and growth inhibition in comparison to untreated samples 5 days after infestation.

Thrips tabaci [5] = test: Comparative Example C4: Thrips tabaci feeding/contact activity; details: 6 days after infestation
Procedure: (§6) Compounds of the invention were tested alongside a number of compounds from WO 2013/026931.
as §5
(§7) Sunflower leaf discs were placed on agar in 24-well microtiter plates and sprayed with aqueous test solutions prepared from 10,000 ppm DMSO stock solutions. After drying the leaf discs were infested with a thrips population of mixed ages. The samples were assessed for mortality (%) 6 days after infestation at the various application rates.

Tetranychus urticae [6] = test: Comparative Example C3: Tetranychus urticae feeding/contact activity; details: mobile stages, 8 days after infestation
Procedure: as §6, §1
as §2, with “mixed population (%) (mobile stages)” for “mixed population (mobile stages)”, “days after infestation at the various application rates.” for “days after infestation.”

Spodoptera littoralis [7] = test: Comparative Example C2: Spodoptera littoralis feeding/contact activity; details: 3 days after infestation
Procedure: as §6
Spodoptera littoralis (Egyptian Cotton Leaf Worm):Feeding/Contact Activity
as §7, with “Cotton leaf” for “Sunflower leaf”, “placed onto” for “placed on”, “with five L1 larvae.” for “with a thrips population of mixed ages.”, “(%) 3” for “(%) 6”

Plutella xylostella [8] = test: Comparative Example C1: Plutella xylostella feeding/contact activity
Procedure: as §6
Plutella xylostella (Diamond Back Moth):Feeding/Contact Activity
as §4, with “(%)” for “and growth inhibition in comparison to untreated samples”, “infestation at the various application rates” for “infestation.”

[9] = application rate 200 ppm, 8 days after infestation
[10] = application rate 200 ppm, mixed ages, 6 days after infestation, read-out: mortality

Cc1cc(C2=NO[C@@](c3cc(Cl)cc(C(F)(F)F)c3)(C(F)(F)F)C2)ccc1C(=O)NC1CN(S(=O)(=O)F)C1 [Compound A10, 3-[[4-[(5S)-5-[3-chloro-5-(trifluoromethyl)phenyl]-5-(trifluoromethyl)-4H-isoxazol-3-yl]-2-methyl-benzoyl]amino]azetidine-1-sulfonyl fluoride]
≥ 80%: mortality at 200 ppm (Tetranychus urticae [1]) | mortality at 200 ppm (Myzus persicae) | percent control (mortality or growth inhibition) at 200 ppm (Diabrotica balteata) | percent control (mortality or growth inhibition) at 200 ppm (Plutella xylostella [2]) | mortality at 200 ppm (Spodoptera littoralis [3]; read-out: control (mortality, anti-feedant effect, growth inhibition)) | mortality at 200 ppm (Thrips tabaci [4]) | percent control (mortality or growth inhibition) at 200 ppm (Euschistus heros)

Cc1cc(C2=NO[C@@](c3cc(Cl)c(F)c(Cl)c3)(C(F)(F)F)C2)ccc1C(=O)NC1CN(S(=O)(=O)NCC(F)(F)F)C1 [Compound A14, 4-[(5S)-5-(3,5-dichloro-4-fluoro-phenyl)-5-(trifluoromethyl)-4H-isoxazol-3-yl]-2-methyl-N-[1-(2,2,2-trifluoroethylsulfamoyl)azetidin-3-yl]benzamide]
≥ 80%: mortality at 200 ppm (Tetranychus urticae [1]; [9]) | mortality at 200 ppm (Myzus persicae; [10]) | percent effect (mortality or growth inhibition) at 200 ppm (Diabrotica balteata) | percent effect (mortality or growth inhibition) at 200 ppm (Plutella xylostella [2]) | percent control (mortality, anti-feedant effect or growth inhibition) at 200 ppm (Spodoptera littoralis [3]) | mortality at 200 ppm (Thrips tabaci [4]; [10]) | percent effect (mortality or growth inhibition) at 200 ppm (Euschistus heros)

Cc1cc(C2=NO[C@@](c3cc(Cl)cc(Cl)c3)(C(F)(F)F)C2)ccc1C(=O)NC1CN(S(=O)(=O)N(C)C)C1 [Compound A03, 4-[(5S)-5-(3,5-dichlorophenyl)-5-(trifluoromethyl)-4H-isoxazol-3-yl]-N-[1-(dimethylsulfamoyl)azetidin-3-yl]-2-methyl-benzamide]
≥ 80%: mortality at 200 ppm (Tetranychus urticae [1]; [9]) | mortality at 200 ppm (Myzus persicae; [10]) | percent effect (mortality or growth inhibition) at 200 ppm (Diabrotica balteata) | percent effect (mortality or growth inhibition) at 200 ppm (Plutella xylostella [2]) | percent control (mortality, anti-feedant effect or growth inhibition) at 200 ppm (Spodoptera littoralis [3]) | mortality at 200 ppm (Thrips tabaci [4]; [10]) | percent effect (mortality or growth inhibition) at 200 ppm (Euschistus heros)

Cc1cc(C2=NO[C@@](c3cc(Cl)cc(C(F)(F)F)c3)(C(F)(F)F)C2)ccc1C(=O)NC1CN(S(=O)(=O)OCC(F)(F)F)C1 [Compound A18, 2,2,2-trifluoroethyl 3-[[4-[(5S)-5-[3-chloro-5-(trifluoromethyl)phenyl]-5-(trifluoromethyl)-4H-isoxazol-3-yl]-2-methyl-benzoyl]amino]azetidine-1-sulfonate]
≥ 80%: mortality at 200 ppm (Tetranychus urticae [1]; [9]) | percent effect (mortality or growth inhibition) at 200 ppm (Diabrotica balteata) | percent effect (mortality or growth inhibition) at 200 ppm (Plutella xylostella [2]) | percent control (mortality, anti-feedant effect or growth inhibition) at 200 ppm (Spodoptera littoralis [3]) | mortality at 200 ppm (Thrips tabaci [4]; [10]) | percent effect (mortality or growth inhibition) at 200 ppm (Euschistus heros)

Cc1cc(C2=NOC(c3cc(Cl)cc(Cl)c3)(C(F)(F)F)C2)ccc1C(=O)NC1CN(S(=O)(=O)F)C1 (stereo not drawn) [Compound A06]
0%: Thrips tabaci mixed population average mortality (%) (Thrips tabaci [5]; application rate 0.195 ppm) | Tetranychus urticae mixed population average mortality (%) (Tetranychus urticae [6]; application rate 0.195 ppm)
80%: Plutella xylostella larval average mortality (%) (Plutella xylostella [8]; application rate 0.195 ppm)
100%: Thrips tabaci mixed population average mortality (%) (Thrips tabaci [5]; application rate 0.781 ppm) | Thrips tabaci mixed population average mortality (%) (Thrips tabaci [5]; application rate 3.12 ppm) | Thrips tabaci mixed population average mortality (%) (Thrips tabaci [5]; application rate 12.5 ppm) | Thrips tabaci mixed population average mortality (%) (Thrips tabaci [5]; application rate 50 ppm) | Thrips tabaci mixed population average mortality (%) (Thrips tabaci [5]; application rate 200 ppm) | Tetranychus urticae mixed population average mortality (%) (Tetranychus urticae [6]; application rate 0.781 ppm) | Tetranychus urticae mixed population average mortality (%) (Tetranychus urticae [6]; application rate 3.12 ppm) | Tetranychus urticae mixed population average mortality (%) (Tetranychus urticae [6]; application rate 12.5 ppm) | Tetranychus urticae mixed population average mortality (%) (Tetranychus urticae [6]; application rate 50 ppm) | Tetranychus urticae mixed population average mortality (%) (Tetranychus urticae [6]; application rate 200 ppm) | Spodoptera littoralis larval average mortality (%) (Spodoptera littoralis [7]; application rate 0.195 ppm) | Spodoptera littoralis larval average mortality (%) (Spodoptera littoralis [7]; application rate 0.781 ppm) | Spodoptera littoralis larval average mortality (%) (Spodoptera littoralis [7]; application rate 3.12 ppm) | Spodoptera littoralis larval average mortality (%) (Spodoptera littoralis [7]; application rate 12.5 ppm) | Spodoptera littoralis larval average mortality (%) (Spodoptera littoralis [7]; application rate 50 ppm) | Spodoptera littoralis larval average mortality (%) (Spodoptera littoralis [7]; application rate 200 ppm) | Plutella xylostella larval average mortality (%) (Plutella xylostella [8]; application rate 0.781 ppm) | Plutella xylostella larval average mortality (%) (Plutella xylostella [8]; application rate 3.12 ppm) | Plutella xylostella larval average mortality (%) (Plutella xylostella [8]; application rate 12.5 ppm) | Plutella xylostella larval average mortality (%) (Plutella xylostella [8]; application rate 50 ppm) | Plutella xylostella larval average mortality (%) (Plutella xylostella [8]; application rate 200 ppm)

Cc1cc(C2=NO[C@@](c3cc(Cl)c(F)c(Cl)c3)(C(F)(F)F)C2)ccc1C(=O)NC1CN(S(=O)(=O)N(CC(F)(F)F)CC(F)(F)F)C1 [Compound A13, N-[1-[bis(2,2,2-trifluoroethyl)sulfamoyl]azetidin-3-yl]-4-[(5S)-5-(3,5-dichloro-4-fluoro-phenyl)-5-(trifluoromethyl)-4H-isoxazol-3-yl]-2-methyl-benzamide]
≥ 80%: mortality at 200 ppm (Tetranychus urticae [1]; [9]) | mortality at 200 ppm (Myzus persicae; [10]) | percent effect (mortality or growth inhibition) at 200 ppm (Diabrotica balteata) | percent effect (mortality or growth inhibition) at 200 ppm (Plutella xylostella [2]) | percent control (mortality, anti-feedant effect or growth inhibition) at 200 ppm (Spodoptera littoralis [3]) | mortality at 200 ppm (Thrips tabaci [4]; [10])

Cc1cc(C2=NO[C@@](c3cc(Cl)cc(Cl)c3)(C(F)(F)F)C2)ccc1C(=O)NC1CN(S(=O)(=O)C2CC2)C1 [Compound A04, N-(1-cyclopropylsulfonylazetidin-3-yl)-4-[(5S)-5-(3,5-dichlorophenyl)-5-(trifluoromethyl)-4H-isoxazol-3-yl]-2-methyl-benzamide]
≥ 80%: mortality at 200 ppm (Tetranychus urticae [1]; [9]) | percent effect (mortality or growth inhibition) at 200 ppm (Diabrotica balteata) | percent effect (mortality or growth inhibition) at 200 ppm (Plutella xylostella [2]) | percent control (mortality, anti-feedant effect or growth inhibition) at 200 ppm (Spodoptera littoralis [3]) | percent effect (mortality or growth inhibition) at 200 ppm (Euschistus heros)

Cc1cc(C2=NO[C@@](c3cc(Cl)c(F)c(Cl)c3)(C(F)(F)F)C2)ccc1C(=O)NC1CN(S(N)(=O)=O)C1 [Compound A12, 4-[(5S)-5-(3,5-dichloro-4-fluoro-phenyl)-5-(trifluoromethyl)-4H-isoxazol-3-yl]-2-methyl-N-(1-sulfamoylazetidin-3-yl)benzamide]
≥ 80%: mortality at 200 ppm (Tetranychus urticae [1]; [9]) | mortality at 200 ppm (Myzus persicae; [10]) | percent effect (mortality or growth inhibition) at 200 ppm (Diabrotica balteata) | percent effect (mortality or growth inhibition) at 200 ppm (Plutella xylostella [2]) | percent control (mortality, anti-feedant effect or growth inhibition) at 200 ppm (Spodoptera littoralis [3]) | mortality at 200 ppm (Thrips tabaci [4]; [10]) | percent effect (mortality or growth inhibition) at 200 ppm (Euschistus heros)
